Experimental findings from patent US20060122181A1, “Heteroaromatic pentacyclic compound and medicinal use thereof” (Japan Tobacco Inc., priority 2003, published 2006) are described below.

Usually melting point stands for the temperature, or range, at which the solid turns liquid.

Each structure is given as a SMILES string.

`CCC(CC)c1ccc(N(Cc2ccc(-c3csc(CN4CCN(c5ccc(C(=O)O)cc5)CC4)n3)cc2)C(C)C)cc1` [Example 1-154]: the melting point lay within 232 to 234 °C.
Take `Cc1ccc(COc2ccc(-c3csc(CN4CCC(c5cccc(C(=O)O)c5)CC4)n3)cc2)cc1[N+](=O)[O-]` [Example 1-184]: the melting point lay within 205 to 210 °C.
In the case of `CCCC(CCC)c1ccc(CN(C)c2ccc(-c3csc(CN(CC(=O)[O-])C(=O)c4ccc(C(C)C)cc4)n3)cc2)cc1.[Na+]` [Example 3-63], the melting point lay in the range of 183 to 188 °C.
For `CCCC(CCC)c1ccc(OCc2ccc(-c3csc(COc4cccnc4C(=O)O)n3)cc2)cc1` [Example 1-82], the melting point was 138.5 °C (dec.).
Turning to `CC(C)CN(Cc1ccc(-c2csc(COc3cncc(C(=O)O)c3)n2)cc1)c1ccc(C(C)C)cc1` [Example 1-8], the melting point lay in the range of 196 to 197 °C.
The molecule `CN(Cc1ccc(C(=O)O)cc1)c1nc(-c2ccc(CNc3ccc(C4CCCCC4)cc3)cc2)cs1` [Example 1-17] returned a melting point of 206 to 210 °C.
The figure for `CCCC(CCC)c1ccc(Cn2c(-c3csc(CN4CCC(c5ccc(C(=O)O)cc5)CC4)n3)nc3ccccc32)cc1` [Example 1-171] is 208.5 to 209.8 °C; for `CC(C)CN(Cc1ccc(-c2csc(CN(CC(=O)O)Cc3ccccc3)n2)cc1)c1ccc(C(C)(C)C)cc1` [Example 1-23] it is 133 °C; for `CCCC(CCC)c1ccc(OCc2ccc(-c3ccc(CN(CC(=O)O)CC(=O)Nc4ccccc4)s3)cc2)cc1` [Example 4-10] it is 122 to 124 °C.
To `CCCC(CCC)N(Cc1ccc(-c2csc(COc3cncc(C(=O)O)c3)n2)cc1)c1ccc(C(C)C)cc1` [Example 1-7] belongs 184 to 185 °C.
On to `CN(Cc1ccc(SCC(C)(C)C)cc1)c1ccc(-c2csc(CN(CC(=O)O)Cc3ccccc3)n2)cc1` [Example 3-41], for which the melting point turned out to be 143 °C.
The figure for `CCCC(CCC)c1ccc(N(Cc2ccc(-c3ccc(CN(CC(=O)O)Cc4nc5ccccc5[nH]4)s3)cc2)C(C)C)cc1` [Example 4-22] is 144 to 150 °C; for `CC(C)c1ccc(Cn2c(-c3csc(CN4CCN(c5cccc(C(=O)O)c5)CC4)n3)nc3ccc(N4CCOCC4)cc32)cc1` [Example 1-186] it is 128.5 to 131.5 °C.
To `CCC(CC)c1ccc2c(c1)nc(-c1csc(COc3ccc(C(=O)O)cc3)n1)n2Cc1ccc(C(C)=O)cc1` [Example 3-130] belongs 127 to 132 °C.
To `CCCC(CCC)N(Cc1ccc(-c2csc(COc3ccc(C(=O)O)cc3)n2)cc1)c1ccc(C(C)C)cc1` [Example 1-9] belongs 166 to 168 °C.
In turn, `CC(C)CN(Cc1ccc(-c2csc(CN(CC(=O)O)S(=O)(=O)c3ccccc3)n2)cc1)c1ccc(C(C)(C)C)cc1` [Example 1-31] came in with a melting point of 168.5 °C.
The figure for `CC(C)CN(Cc1ccc(-c2csc(CN(CC(=O)O)C(=O)c3ccccc3)n2)cc1)c1ccc(C(C)(C)C)cc1` [Example 1-28] is 147 °C.
To `CCC(CC)c1ccc(COc2ccc(-c3csc(CN(CC(=O)O)Cc4cc(C)cc(C)c4)n3)cc2)cc1` [Example 3-18] belongs 114 to 119 °C; to `CCC(CC)c1ccc(COc2ccc(-c3csc(CN(CC(=O)O)Cc4ccc(C(F)(F)F)cc4)n3)cc2)cc1` [Example 3-16], 136 to 138 °C; to `CCCC(CCC)c1ccc(N(Cc2ccc(-c3csc(COc4cc(C(=O)O)ccc4NC(C)=O)n3)cc2)C(C)C)cc1` [Example 1-108], 129 to 131 °C.
To `CCCC(CCC)c1ccc(OCc2ccc(-c3csc(CN(CC(=O)O)CC(=O)N(c4ccccc4)C(C)C)n3)cc2)cc1` [Example 1-99] belongs 115.5 °C.
`CCC(CC)c1ccc(N(Cc2ccc(-c3ccc(CN(CC(=O)O)Cc4nc(C(C)(C)C)cs4)s3)cc2)C(C)C)cc1` [Example 4-19] had a melting point of 92 to 98 °C.
The figure for `CCC(CC)c1ccc(N(Cc2ccc(-c3ccc(CN4Cc5ccccc5C[C@H]4C(=O)O)s3)cc2)C(C)C)cc1` [Example 4-28] is 152 °C; for `CCC(CC)c1ccc(N(Cc2ccc(-c3csc(CN(C)[C@@H](Cc4ccccc4)C(=O)O)n3)cc2)C(C)C)cc1` [Example 1-22] it is 80 °C.
The figure for `CCCC(CCC)c1ccc(OCc2ccc(-c3csc(CN(CC(=O)O)CC(=O)Nc4ccc(N(C)C)cc4)n3)cc2)cc1` [Example 1-97] is 192.5 °C; for `CCC(CC)c1ccc(N(Cc2ccc(-c3csc(CSc4ccc(C(=O)O)cc4)n3)cc2)C(C)C)cc1` [Example 1-13] it is 132.5 °C.
The figure for `CCCC(CCC)c1ccc(N(C)Cc2ccc(-c3csc(COc4cncc(C(=O)O)c4)n3)cc2)cc1` [Example 1-4] is 135 to 138 °C; for `CCCC(CCC)c1ccc(COc2ccc(-c3csc(CSc4ccc(C(=O)O)cc4)n3)cc2)cc1` [Example 3-3] it is 117 to 118 °C; for `CC(C)Cc1ccc(CN(C)c2ccc(-c3csc(CN(CC(=O)O)Cc4ccc(Cl)cc4)n3)cc2)cc1` [Example 3-47] it is 153 to 157 °C.
For `CCCC(CCC)c1ccc(COc2ccc(C)cc2-c2csc(CN(C)S(=O)(=O)c3ccc(C(=O)O)cc3)n2)cc1` [Example 3-6], the melting point lay within 130 to 132 °C.
The figure for `CC(C)CC(=O)N(CC(=O)O)Cc1nc(-c2ccc(N(C)Cc3ccc(CC(C)C)cc3)cc2)cs1` [Example 3-59] is 117 to 118 °C; for `CCCC(CCC)c1ccc(CN(CC)C(=O)c2ccc(-c3csc(CN(CC(=O)O)Cc4ccccc4)n3)cc2)cc1` [Example 1-57] it is 59 to 65 °C; for `CCCC(CCC)c1ccc(CN(C)c2ccc(-c3csc(CSc4ccc(C(=O)O)cc4)n3)cc2)cc1` [Example 3-96] it is 126 to 127 °C.
The molecule `CCCC(CCC)c1ccc(NC(=O)c2ccc(-c3csc(CN(CC(=O)O)Cc4ccccc4)n3)cc2)cc1` [Example 1-54] came in with a melting point of 201 to 202 °C.
For the molecule `CCCC(CCC)c1ccc(OCc2ccc(-c3csc(CN(CC(=O)O)CC(=O)Nc4ccc(OC)cc4)n3)cc2)cc1` [Example 1-98], the melting point was 176.5 °C.
To `CCC(CC)c1ccc(N(Cc2ccc(-c3csc(CN4Cc5ccccc5CC4C(=O)O)n3)cc2)C(C)C)cc1` (centres unmarked) [Example 1-32] belongs 127.5 °C; to `CC(C)CN(Cc1ccc(-c2csc(CN(CC(=O)O)C(=O)c3cccnc3)n2)cc1)c1ccc(C(C)(C)C)cc1` [Example 1-30], 193 °C.
In turn, `CC(C)CCSc1ccc(CN(C)c2ccc(-c3csc(CN(CC(=O)O)Cc4ccccc4)n3)cc2)cc1` [Example 3-42] displayed a melting point of 122 °C.
To `CCN(Cc1ccc(C(C)C)cc1)c1ccc(-c2csc(CN(CC(=O)O)Cc3ccc(C(C)C)cc3)n2)cc1` [Example 3-44] belongs 74 to 78 °C; to `CN(C[C@H]1CC[C@H](c2ccc(C(C)(C)C)cc2)CC1)c1ccc(-c2csc(CN(CC(=O)O)Cc3ccccc3)n2)cc1` [Example 3-28], 192 to 195 °C.
The figure for `CCCC(CCC)c1ccc(OCc2ccc(-c3csc(CN(C)c4ccc(OCC(=O)O)c(C(=O)O)c4)n3)cc2)cc1` [Example 1-125] is 122 °C.
